Reference: patent publication EP3338775B1, “USE OF BUTYLIDENEPHTHALIDE” (Everfront Biotech Inc., priority 2015, dated 2017)
Several values for one entry are separate records, joined by “and”; a condition that tells them apart may be missing. Equal values may be shown once.

Experiments:
[1] = tested on: NHOKs (normal human oral keratinocytes); experiment: MTT viability assay on normal human oral keratinocytes; format: cell-based; conditions: BP 0, 25, 50 and 100 µg/ml for 24 hours; Figure 2
Experimental: NHOKs (normal human oral keratinocytes) and HNC-TIC (head and neck cancer-derived tumor initiating cell)-like oral stem cells (i.e., ALDH1^+CD44^+-1 cell line or ALDH1^+CD44^+-2 cell line) were treated with different concentrations (0, 25, 50 and 100 µg/ml) of BP for 24 hours, and then, an MTT assay was utilized to analyzed the viabilities of NHOKs and HNC-TIC-like oral stem cells (i.e., ALDH1^+CD44^+-1 cell line and ALDH1^+CD44^+-2 cell line).

[2] = tested on: HNC-TIC-like oral stem cells (ALDH1^+CD44^+-1 cell line or ALDH1^+CD44^+-2 cell line); experiment: Transwell invasion assay with HNC-TIC-like oral stem cells; format: cell-based; conditions: BP 0, 25 and 50 µg/ml for 24 hours
Description: In this research, the effect of BP on inhibiting the migration and invasion of cancer stem cells was further investigated by a transwell invasion assay system (i.e., Transwell^○,R system, purchased from Corning, UK) with a polycarbonate filter membrane of 8-µm pore size (purchased from Coming, UK). First, the polycarbonate filter membrane was coated with Matrigel™ (purchased from BD Pharmingen, USA), and then, the coated membrane was placed in the lower chamber of the transwell invasion assay system. Then, the lower chamber was filled with 10% serum-containing medium. On the other hand, HNC-TIC-like oral stem cells (i.e., ALDH1^+CD44^+-1 cell line or ALDH1^+CD44^+-2 cell line) were treated with different concentrations (0, 25 and 50 µg/ml) of BP for 24 hours, and then, the treated cells of each group was cultured in the upper chamber which was filled with serum-free medium, at a cell density of 1×10^5 cells/100 µl for 24 hours. […] The invasion cancer cells of each group were counted and photographed over five visual fields of the membrane with the use of a 100-fold magnification under a microscope. The relative invasion ability of cells of each experimental group was calculated based on the result of the group treated with 0 µg/ml of BP.

MMP-2 = experiment: Western blotting of MMP-2 protein in brain CSCs CD133+; format: cell-based; conditions: BP 0, 12.5, 25, 50, 62.5 and 75 µg/ml for 24 hours, Figure 10
Experimental: It has been known that at the start of the invasion of cancer stem cells, the extracellular matrix (ECM) is degraded by matrix metalloproteinases (MMPs). Wherein, the expressions of gelatinases, such as gelatinase-A (i.e., MMP-2) and gelatinase-B (i.e., MMP-9), are highly related to the histopathology of tumor metastasis. Brain CSCs ^CD133+ was treated with different concentrations (0, 12.5, 25, 50, 62.5 and 75 µg/ml) of BP for 24 hours, and then, proteins were extracted from the cells to conduct Western blotting to determine the expression of MMP-2 protein in the BP-treated brain CSCs ^CD133+.

brain CSCs ^CD133+ = experiment: MTT cell viability assay on brain CSCs CD133+; format: cell-based
Description: Thereafter, a cell viability assay, MTT assay, was utilized to analyze the viabilities of brain CSCs ^CD133+ and malignant glioma DBTRG cells. […]

ALDH = experiment: ALDEFLUOR flow cytometry analysis of ALDH activity in HNC-TIC-like oral stem cells; format: cell-based; conditions: group without DEAB addition; BP 0, 25 and 50 µg/ml for 24 hours; Figure 8
Experimental: ALDH protein is also an important stemness-maintenance marker of cancer stem cells and participates in the regulation of the self-renewal and differentiation of cancer stem cells. HNC-TIC-like oral stem cells (i.e., ALDH1^+CD44^+-1 cell line or ALDH1^+CD44^+-2 cell line) were treated with different concentrations (0, 25 and 50 µg/ml) of BP for 24 hours, and then, 1 ×10^5 cells obtained from each group were separately suspended in 50 µl of a stem cell detection kit (i.e., ALDEFLUOR array kit, purchased from […] Technologies Inc., Vancouver, Canada) buffer and the cell suspension of each group was separately added with ALDEFLUOR to a final concentration of 1 µM. Thereafter, a sample of each group was stained by […] and then analyzed by flow cytometry analysis to determine the ALDH activity of HNC-TIC-like oral stem cells (i.e., ALDH1^+CD44^+-1 cell line and ALDH1^+CD44^+-2 cell line).
The above experimental procedure was repeated, but the cell suspension of each group was further added with N,N-diethylaminobenzaldehyde (DEAB, i.e., an inhibitor of ALDH) to a final concentration of 150 µM of DEAB separately.

[3] = tested on: HNC-TIC-like oral stem cells stably transfected with GFP-tagged constructs; experiment: Tumor initiating activity animal experiment, subcutaneous GFP-tagged HNC-TIC-like oral stem cells in nude mice; format: in vivo, BALB/c nu/nu mice
Experimental: In this research, the effect of BP on inhibiting the tumor initiating activity of cancer stem cells was further investigated by animal experiments. First, 5-6 weeks old BALB/c nu/nu mice (weight 18-22 g) were bred under the same condition for 4 weeks. Then, HNC-TIC-like oral stem cells stably transfected with GFP-tagged constructs were injected (1×10^4 cells/0.1 mL/mouse) subcutaneously into the axilla of mice. After tumors reached 100 mm^3, mice were grouped into one control group and two experimental groups (three groups in total, n=3 per group). Then, one experimental group was injected daily with 100 mg/kg of BP for 6 days and another experimental group was injected daily with 200 mg/kg of BP for 6 days. The control group was injected daily with a vehicle (without BP) for 6 days. Ten days after the injection of BP or vehicle, the length and width were measured every 2 days (22 days in total), and then, the average tumor volume was calculated according to the following Formula 1. At the same time, the GFP signal (i.e., green fluorescence) of each group was detected and photographed by the IVIS Imaging system. The GFP intensity of each group was analyzed by Image-Pro Plus software. [length×width^2]/2((unit:mm)^3) [formula]

CCCC=C1OC(=O)c2ccccc21 [BP, butylidenephthalide]
viability of NHOKs [1]: did not decrease | number of cells on the polycarbonate filter membrane ([2]; Figure 11A): significantly reduced | relative invasion ability of cancer stem cells ([2]; relative to 0 µg/ml group, Figure 11B): decreased along with the increment in the concentration of BP | expression of MMP-2 protein (MMP-2): significantly decreased | viability of brain CSCs ^CD133+ (brain CSCs ^CD133+; 24-hour group and 48-hour group, BP 0-100 µg/ml, BCNU 0-1000 µM, Figure 1A, 1B): significantly decreased | IC50 (brain CSCs ^CD133+; 24 h, read-out: IC50 to brain CSCs ^CD133+): 406 µM and 76.5 µg/mL | number of live cells with ALDH activity (ALDH): increased along with the increment in the concentration of BP | GFP intensity ([3]; 100 mg/kg and 200 mg/kg groups, injected daily for 6 days, compared to control group, Figures 16C, 16D): significantly decreased | tumor volume ([3]; 100 mg/kg and 200 mg/kg groups, injected daily for 6 days, over a period of time after BP injection, Figure 16B): decreased | body weight of mice ([3]; 100 mg/kg or 200 mg/kg of BP injected daily for 6 days, Figure 16A): didn't change significantly
